The values that follow come from patent publication US6743640B2, “Fluorescent polymer-QTL approach to biosensing” (priority 2000, dated 2004).

The target in this assay is avidin (Gallus gallus, UniProt P02701). Put plainly: Competitive avidin-biotin fluorescence quench assay with 263 PRU cyanine polymer. As to the method:
A preferred embodiment for using a cyanine polymer/QTL approach consists of a competitive assay based on selective quenching of a cyanine polymer solution. For example, a 263 polymer repeat unit (PRU) cyanine polymer can be conveniently used in a fluorescence quench competitive bioassay. A competitive assay involving the avidin-biotin receptor-ligand system was conducted as follows: 500 μl of 0.1 μM of this polymer was added to the filtrate (lower) chamber of each of 3 separate Microcon YM-30 centrifugal filter vials. In each of these devices the filtrate chamber is separated from the retentate (upper) chamber by a 30 kilodalton (KD) nominal molecular weight cutoff (NMWCO) cellulose membrane. This membrane is impermeable to the 66 KD protein avidin but allows the biotin-anthraquinone conjugate to pass. […] Since each avidin has four biotin binding sites, this sub-stoichiometric ratio ensures full binding of all QTL conjugate to avidin. The three retentate chambers were charged with a.) 0.5 μM D-Biotin, b. and c.) 0.8 μM AQS-biotin conjugate complexed with 1.0 μM avidin. The 3 tubes were then each sealed and incubated for 10 minutes, after which time 0.5 μM D-Biotin was added to vial c. […] The fluorescence emission of all three filtrates was then measured at 20.0° C.+/−0.1° C. on a SPEX FluoroMax-3. […]

avidin, sequence (P02701 25-152, species assumed): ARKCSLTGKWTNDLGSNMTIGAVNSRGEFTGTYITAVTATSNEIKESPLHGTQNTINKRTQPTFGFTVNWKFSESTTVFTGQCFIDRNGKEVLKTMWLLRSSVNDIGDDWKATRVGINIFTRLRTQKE

`O=C(O)CCCC[C@@H]1SC[C@@H]2NC(=O)N[C@@H]21` [biotin, D-Biotin]: the “quenching of cyanine polymer after adding competitor to QTL-avidin solution” value (0.8 μM AQS-biotin conjugate with 1.0 μM avidin) is “quenching occurred”. For the same compound, the “quenching of cyanine polymer in filtrate, sample alone” value (sample alone in retentate chamber, 30 KD membrane, 263 PRU polymer 0.1 μM) is given as “no quenching”.
